Where a name gives a salt, the structure may show the parent alone.

The target of the first test is T1, BACE1 enzyme (Homo sapiens, UniProt P56817).
T1 construct: The HEK293-9B.A1 cell line, which overexpresses the BACE1 enzyme, was derived from HEK293 cells; endogenous in cells; washed 48,000 x g pellet of the cell homogenate
T1 sequence (P56817 46-501): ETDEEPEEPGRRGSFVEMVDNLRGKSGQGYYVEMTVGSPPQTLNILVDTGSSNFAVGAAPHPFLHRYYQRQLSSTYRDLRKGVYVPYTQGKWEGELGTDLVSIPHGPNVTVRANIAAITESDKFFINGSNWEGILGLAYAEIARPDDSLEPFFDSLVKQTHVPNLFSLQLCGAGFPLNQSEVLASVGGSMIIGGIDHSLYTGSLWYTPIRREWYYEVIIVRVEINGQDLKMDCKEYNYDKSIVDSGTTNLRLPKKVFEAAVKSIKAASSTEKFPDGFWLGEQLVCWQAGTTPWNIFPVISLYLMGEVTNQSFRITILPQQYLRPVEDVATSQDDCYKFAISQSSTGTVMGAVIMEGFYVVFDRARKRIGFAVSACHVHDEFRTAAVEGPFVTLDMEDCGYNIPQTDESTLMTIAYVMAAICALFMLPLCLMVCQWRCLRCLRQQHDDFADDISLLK
Briefly: Radioligand displacement assay with a radiolabeled BACE inhibitor on HEK293-9B.A1 cell homogenate. Type of test: binding.
Conditions: not given
The procedure: Radioligand displacement assays with a radiolabeled BACE inhibitor (WO 2004 013098, compound 3, where the methoxy group is substituted for C(^3H)3) were carried out using standard methods (Keen, M. (1999) in Receptor Binding Techniques (Walker, J. M. ed) p. 106 Humana Press, Totowa, N.J.). The HEK293-9B.A1 cell line, which overexpresses the BACE1 enzyme, was derived from HEK293 cells (Simmons, N. L. (1990) A cultured human renal epitheloid cell line responsive to vasoactive intestinal peptide. Exp. Physiol. 75:309-19.) by RAGE™ (Harrington, J. J. et al. (2001) Creation of genome-wide protein expression libraries using random activation of gene expression. Nat. Biotechnol. 19:440-5; U.S. Pat. Nos. 6,410,266 and 6,361,972). T225 flask cultures of HEK293-9B.A1 were grown to 80% confluency in DMEM supplemented with 2 mM L-glutamine, 10 μg/ml penicillin, 10 μg/ml streptomycin, 3 μg/ml puromycin, 100 nM methotrexate, and 10% fetal bovine serum (Invitrogen, Carlsbad, Calif.), harvested, and resuspended at 2×10^8 cells per 10 ml of lysis buffer consisting of 50 mM HEPES pH 7.0 containing a protease inhibitor cocktail of AEBSF 104 μM, aprotinin 80 nM, leupeptin 2 μM, bestatin 4 μM, pepstatin A 1.5 μM, and E-64 1.4 μM (0.1% of protease inhibitor cocktail P8340, Sigma-Aldrich, St. Louis, Mo.) at 4° C. The resuspended cells were homogenized using a Polytron (Brinkman, Westbury, N.Y.) at setting 6 for 10 sec., then centrifuged at 48,000×g for 10 min. The resulting pellet was washed by repeating the resuspension, homogenization and centrifugation steps. The final pellet was resuspended in buffer at 4° C. to yield a total protein concentration of 5 mg/ml, then aliquots were frozen in liquid nitrogen for further storage at −70° C. Immediately before carrying out a binding assay, an aliquot of cell homogenate was thawed and diluted to a concentration of 100 μg/ml in assay buffer consisting of 50 mM HEPES pH 5.0 and 0.1% CHAPSO. Assays were initiated in polypropylene 96-well plates (Costar, Cambridge, Mass.) by the addition of 200 μl of cell homogenate to 50 μl of assay buffer containing 1 nM radioligand (WO 2004 013098, compound 3, where the methoxy group is substituted for C(^3H)3: 80 Ci/mMol) and various concentrations of unlabelled compounds, and incubated for 1.5 hr. at 25° C. Separation of bound from free radioligand was by filtration on GFF glass fiber filters (Innotech Biosystems International, Lansing, Mich.) using an Innotech cell harvester.
(Loss of bound radioactivity is the signal in a displacement assay; it reports binding, not function.)
`COc1cccc(CNC[C@@H](O)[C@H](Cc2cc(F)cc(F)c2)NC(=O)c2cc(C(=O)N[C@H](C)c3ccccc3)cc(C(C)O)c2)c1` (stereo partly drawn) [Example 45, N^1-((2S,3R)-4-(3-methoxybenzylamino)-1-(3,5-difluorophenyl)-3-hydroxybutan-2-yl)-5-(1-hydroxyethyl)-N^3-((R)-1-phenylethyl)isophthalamide TFA salt] came in with an IC50 of under 0.1 µM.

The same test, now with this note: displacement of 1 nM tritiated radioligand, HEK293-9B.A1 homogenate, pH 5.0, 1.5 hr at 25° C.; read-out: Activity Rating (activity based on IC50 values).
In the case of `CCCO/N=C(\C)c1cc(C(=O)N[C@@H](Cc2cc(F)cc(F)c2)[C@H](O)CNCc2cccc(OC)c2)cc(N2CCCCS2(=O)=O)c1` [Example 26, N-[(1S,2R)-1-(3,5-difluoro-benzyl)-2-hydroxy-3-(3-methoxy-benzylamino)-propyl]-3-(1,1-dioxo-1λ^6-[1,2]thiazinan-2-yl)-5-{1-[(E)-propoxyimino]-ethyl}-benzamide TFA salt], the IC50 is under 0.1 µM.

Turning to `CCCN(C)C(=O)c1cc(C(C)=O)cc(C(=O)N[C@@H](Cc2cc(F)cc(F)c2)[C@H](O)CNCc2cccc(OC)c2)c1` [Example 8, N^1-((2S,3R)-4-(3-methoxybenzylamino)-1-(3,5-difluorophenyl)-3-hydroxybutan-2-yl)-5-acetyl-N^3-methyl-N^3-propylisophthalamide TFA salt], the IC50 was under 0.1 µM.

With `CCCO/N=C(\C)c1cc(C(=O)N[C@@H](Cc2cc(F)cc(F)c2)[C@H](O)CNCc2cccc(OC)c2)cc(C(=O)N(C)CCC)c1` [Example 14, N^1-((2S,3R)-4-(3-methoxybenzylamino)-1-(3,5-difluorophenyl)-3-hydroxybutan-2-yl)-N^3-methyl-5-((E)-1-(propoxyimino)ethyl)-N^3-propylisophthalamide], the IC50 is under 0.1 µM.

For the compound `CCCN(CCC)C(=O)c1cc(C(=O)N[C@@H](Cc2cc(F)cc(F)c2)[C@H](O)CNCc2cccc(OC)c2)cc(/C(C)=N/OCc2ccccc2)c1` [Example 4, N^1-((2S,3R)-4-(3-methoxybenzylamino)-1-(3,5-difluorophenyl)-3-hydroxybutan-2-yl)-5-((E)-1-(benzyloxyimino)ethyl)-N^3,N^3-dipropylisophthalamide TFA salt], the IC50 was under 0.1 µM.

Consider `COc1cccc(CNC[C@@H](O)[C@H](Cc2cc(F)cc(F)c2)NC(=O)c2cc(C(C)=O)cc(N(C)S(C)(=O)=O)c2)c1` [Example 29, N-((2S,3R)-4-(3-methoxybenzylamino)-1-(3,5-difluorophenyl)-3-hydroxybutan-2-yl)-3-acetyl-5-(N-methylmethan-2-ylsulfonamido)benzamide TFA salt], for which the IC50 fell in the range of 0.1 to 1 µM. On the same count and under the same terms, as for `CCCN(CCC)C(=O)c1cc(C(C)=O)cc(C(=O)N[C@@H](Cc2cc(F)cc(F)c2)[C@H](O)CNCc2cccc(OC)c2)c1` [Example 1, N^1-((2S,3R)-4-(3-methoxybenzylamino)-1-(3,5-difluorophenyl)-3-hydroxybutan-2-yl)-5-acetyl-N^3,N^3-dipropylisophthalamide TFA salt], the figure is under 0.1 µM; as for `COc1cccc(CNC[C@@H](O)[C@H](Cc2cc(F)cc(F)c2)NC(=O)c2cc(C(C)=O)cc(N3CCCCS3(=O)=O)c2)c1` [Example 22, N-[(1S,2R)-1-(3,5-difluoro-benzyl)-2-hydroxy-3-(3-methoxy-benzylamino)-propyl]-3-(1,1-dioxo-1λ^6-[1,2]thiazinan-2-yl)-5-acetyl-benzamide TFA salt], under 0.1 µM. Same read-out and setting: the value for `COc1cccc(CNC[C@@H](O)[C@H](Cc2cc(F)cc(F)c2)NC(=O)c2cc(/C(C)=N/OCC(C)C)cc(N3CCCCS3(=O)=O)c2)c1` [Example 27, N-[(1S,2R)-1-(3,5-difluoro-benzyl)-2-hydroxy-3-(3-methoxy-benzylamino)-propyl]-3-(1,1-dioxo-1λ^6-[1,2]thiazinan-2-yl)-5-{1-[(E)-isobutoxyimino]-ethyl}-benzamide TFA salt] was 0.1 to 1 µM; that for `CO/N=C(\C)c1cc(C(=O)N[C@@H](Cc2cc(F)cc(F)c2)[C@H](O)CNCc2cccc(OC)c2)cc(N(C)S(C)(=O)=O)c1` [Example 30, N-((2S,3R)-4-(3-methoxybenzylamino)-1-(3,5-difluorophenyl)-3-hydroxybutan-2-yl)-3-((E)-1-(methoxyimino)ethyl)-5-(N-methylmethan-2-ylsulfonamido)benzamide TFA salt] was under 0.1 µM; that for `CCCO/N=C(\C)c1cc(C(=O)N[C@@H](Cc2cc(F)cc(F)c2)[C@H](O)CNCc2cccc(OC)c2)cc(S(C)(=O)=O)c1` [Example 19, N-((2S,3R)-4-(3-methoxybenzylamino)-1-(3,5-difluorophenyl)-3-hydroxybutan-2-yl)-3-(methylsulfonyl)-5-((E)-1-(propoxyimino)ethyl)benzamide TFA salt] was 0.1 to 1 µM.

With `COc1cccc(CNC[C@@H](O)[C@H](Cc2cc(F)cc(F)c2)NC(=O)c2cc(C(C)=O)cc(S(C)(=O)=O)c2)c1` [Example 16, N^1-((2S,3R)-4-(3-methoxybenzylamino)-1-(3,5-difluorophenyl)-3-hydroxybutan-2-yl)-3-acetyl-5-(methylsulfonyl)benzamide TFA salt], the IC50 is 0.1 to 1 µM.

For `C=CCO/N=C(\C)c1cc(C(=O)N[C@@H](Cc2cc(F)cc(F)c2)[C@H](O)CNCc2cccc(OC)c2)cc(S(C)(=O)=O)c1` [Example 21, N-((2S,3R)-4-(3-methoxybenzylamino)-1-(3,5-difluorophenyl)-3-hydroxybutan-2-yl)-3-((E)-1-(allyloxyimino)ethyl)-5-(methylsulfonyl)benzamide TFA salt], the IC50 was 0.1 to 1 µM. For `C=CCO/N=C(/C)c1cc(C(=O)NC(C)c2ccc(F)cc2)cc(C(=O)N[C@@H](Cc2cc(F)cc(F)c2)[C@H](O)CNCc2cccc(OC)c2)c1` (stereo partly drawn) [Example 49, N^1-((2S,3R)-4-(3-methoxybenzylamino)-1-(3,5-difluorophenyl)-3-hydroxybutan-2-yl)-5-((Z)-1-(allyloxyimino)ethyl)-N^3-(1-(4-fluorophenyl)ethyl)isophthalamide TFA salt], the IC50 lay in the range of 0.1 to 1 µM. Take `C=CCO/N=C(\C)c1cc(C(=O)N[C@@H](Cc2cc(F)cc(F)c2)[C@H](O)CNCc2cccc(OC)c2)cc(N(c2ccccc2)S(C)(=O)=O)c1` [Example 42, N-((2S,3R)-4-(3-methoxybenzylamino)-1-(3,5-difluorophenyl)-3-hydroxybutan-2-yl)-3-((E)-1-(allyloxyimino)ethyl)-5-(N-phenylmethan-10-ylsulfonamido)benzamide]: the IC50 is under 0.1 µM. Same read-out and setting: the value for `COc1cccc(CNC[C@@H](O)[C@H](Cc2cc(F)cc(F)c2)NC(=O)c2cc(/C(C)=N/OCc3ccccc3)cc(N(c3ccccc3)S(C)(=O)=O)c2)c1` [Example 39, N-((2S,3R)-4-(3-methoxybenzylamino)-1-(3,5-difluorophenyl)-3-hydroxybutan-2-yl)-3-((E)-1-(benzyloxyimino)ethyl)-5-(N-phenylmethan-10-ylsulfonamido)benzamide] was under 0.1 µM. On the same count and under the same terms, the value for `CCCN(C)C(=O)c1cc(C(=O)N[C@@H](Cc2cc(F)cc(F)c2)[C@H](O)CNCc2cccc(OC)c2)cc(/C(C)=N/OCc2ccccc2)c1` [Example 11, N^1-((2S,3R)-4-(3-methoxybenzylamino)-1-(3,5-difluorophenyl)-3-hydroxybutan-2-yl)-5-((E)-1-(benzyloxyimino)ethyl)-N^3-methyl-N^3-propylisophthalamide hydrochloride] was under 0.1 µM; that for `CO/N=C(\C)c1cc(C(=O)N[C@@H](Cc2cc(F)cc(F)c2)[C@H](O)CNCc2cccc(OC)c2)cc(N2CCCCS2(=O)=O)c1` [Example 24, N-[(1S,2R)-1-(3,5-difluoro-benzyl)-2-hydroxy-3-(3-methoxy-benzylamino)-propyl]-3-(1,1-dioxo-1λ^6-[1,2]thiazinan-2-yl)-5-{1-[(E)-methoxyimino]-ethyl}-benzamide TFA salt] was under 0.1 µM; that for `CCCN(CCC)C(=O)c1cc(C(=O)N[C@@H](Cc2cc(F)cc(F)c2)[C@H](O)CNCc2cccc(OC)c2)cc(/C(C)=N/OC)c1` [Example 3, N^1-((2S,3R)-4-(3-methoxybenzylamino)-1-(3,5-difluorophenyl)-3-hydroxybutan-2-yl)-5-((E)-1-(methoxyimino)ethyl)-N^3,N^3-dipropylisophthalamide TFA salt] was under 0.1 µM.

The IC50 is the concentration that inhibits the measured activity by half.
